Literature values in US5362496A, “Method and therapeutic system for smoking cessation” (priority 1993, dated 1994).
Read-outs that look alike come from different tables or passages of the source. Peptide text beside a SMILES is read from it.

Columns and labels:
[1] = relative, Sucrose = 1.0
[2] = tested on: Streptococcus mutans and other oral microorganisms
[3] = in vitro and in vivo studies
[4] = humans
[5] = human cadaver skin in vitro
[6] = tested on: nicotinic cholinergic receptors in the central nervous system and at autonomic ganglia; settings: in 10 minutes
[7] = free base; mucous membranes and intact skin

Molecule	Sweetness [1]	cariogenicity [2]	further results
CC1=CC(=O)NS(=O)(=O)O1 [Acesulfame]	200	–	–
COC(=O)[C@H](Cc1ccccc1)NC(=O)[C@@H](N)CC(=O)O [Aspartame] (H-Asp-Phe-OMe)	100-200	–	–
O=S(=O)(O)NC1CCCCC1 [Cyclamate]	30-40	–	–
OC[C@@H](O)[C@@H](O[C@H]1O[C@H](CO)[C@@H](O)[C@H](O)[C@H]1O)[C@H](O)[C@@H](O)CO [Maltitol]	0.7-0.9	generally not fermented to any significant degree and are less cariogenic than sucrose	–
OC[C@@H](O)[C@@H](O)[C@H](O)[C@H](O)CO [Mannitol]	0.4-0.6	generally not fermented to any significant degree and are less cariogenic than sucrose	–
COc1ccc([C@@H]2CC(=O)c3c(O)cc(O[C@@H]4O[C@H](CO)[C@@H](O)[C@H](O)[C@H]4O[C@@H]4O[C@@H](C)[C@H](O)[C@@H](O)[C@H]4O)cc3O2)cc1O [Neohesperidine]	1000	–	–
O=C(CO)[C@@H](O)[C@H](O)[C@H](O)CO[C@H]1O[C@H](CO)[C@@H](O)[C@H](O)[C@H]1O [Palantinose]	0.4-0.5	generally not fermented to any significant degree and are less cariogenic than sucrose	–
O=C1NS(=O)(=O)c2ccccc21 [Saccharin]	400-500	–	–
OC[C@@H](O)[C@@H](O)[C@H](O)[C@@H](O)CO [Sorbitol]	0.5-0.6	generally not fermented to any significant degree and are less cariogenic than sucrose	–
OC[C@@H](O)[C@H](O)[C@@H](O)CO [Xylitol]	1.0	generally not fermented to any significant degree and are less cariogenic than sucrose	effect on development of new caries [3]: inhibit the development of new caries; effect on food intake [4]: decrease food intake; effect on gastric emptying [4]: prolong gastric emptying
CC1(C)[C@@H](O[C@H]2O[C@H](C(=O)O)[C@@H](O)[C@H](O)[C@H]2O[C@@H]2O[C@H](C(=O)O)[C@@H](O)[C@H](O)[C@H]2O)CC[C@]2(C)[C@H]3C(=O)C=C4[C@@H]5C[C@@](C)(C(=O)O)CC[C@]5(C)CC[C@@]4(C)[C@]3(C)CC[C@@H]12 [ammonium glycyrrhizinate]	–	generally not fermented to any significant degree and are less cariogenic than sucrose	–
O=C(CO)[C@@H](O)[C@H](O)[C@H](O)CO [fructose]	–	generally not fermented to any significant degree and are less cariogenic than sucrose	–
O=C[C@H](O)[C@@H](O)[C@H](O)[C@H](O)CO [glucose]	–	cariogenic or caries causing	–
CN1CCCC1c1cccnc1 (stereo not shown) [nicotine]	–	–	lipid solubility: highly lipid soluble; volatility (free base): extremely volatile; light stability (ultraviolet light): degrades when exposed to ultraviolet light; skin permeability ([5]; first day of patch use): ~0.1 mg/cm^2 ·h; skin permeability ([5]; later times): ≥ 0.4 mg/cm^2 ·h; rise in nicotine blood level required for postsynaptic effects [6]: at least 10 ng/mL; absorption through membranes and skin [7]: absorbed readily through mucous membranes and intact skin
OC[C@H]1O[C@@](CO)(O[C@H]2O[C@H](CO)[C@@H](O)[C@H](O)[C@H]2O)[C@@H](O)[C@@H]1O [sucrose, reference compound]	–	cariogenic or caries causing	–
Monellin	2500	–	–
starch	–	cariogenic or caries causing	–
